Test results: US6969721B2, “Tricyclic-2-pyridone compounds useful as HIV reverse transcriptase inhibitors” (Bristol-Myers Squibb Pharma, priority 2000, dated 2005)

In the case of CCCCC1(C(F)(F)F)c2cc(Cl)ccc2Nc2c1cc[nH]c2=O (centres unmarked) [Example 18, 5-Butyl-7-chloro-5-trifluoromethyl-5,10-dihydrobenzo[b]-1,7-naphthyridin-1(2H)-one], the melting point is reported as 245 to 248 °C. O=c1[nH]ccc2c1Nc1ccc(Cl)cc1C2(Cc1ccccn1)C(F)(F)F (centres unmarked) [Example 19, 7-Chloro-5-(2-pyridylmethyl)-5-trifluoromethyl-5,10-dihydrobenzo[b]-1,7-naphthyridin-1(2H)-one] showed a melting point of 270 to 275 °C. Work on O=c1[nH]ccc2c1Nc1ccc(Cl)cc1C2(CCC1CC1)C(F)(F)F (centres unmarked) [Example 20, 7-Chloro-5-(2-cyclopropylethyl)-5-trifluoromethyl-5,10-dihydrobenzo[b]-1,7-naphthyridin-1(2H)-one] yielded a melting point of 220 to 222 °C. For O=c1[nH]ccc2c1Nc1ccc(Cl)cc1C2(C#CC1CC1)C(F)(F)F (centres unmarked) [Example 21, 7-Chloro-5-cyclopropylethynyl-5-trifluoromethyl-5,10-dihydrobenzo[b]-1,7-naphthyridin-1(2H)-one], the melting point was 247 to 250 °C. With O=c1[nH]ccc2c1Nc1ccc(Cl)cc1C2(CNC1CC1)C(F)(F)F (centres unmarked) [Example 22, 7-Chloro-5-(N-cyclopropylaminomethyl)-5-trifluoromethyl-5,10-dihydrobenzo[b]-1,7-naphthyridin-1(2H)-one] the melting point was 230 to 235 °C. Molecule O=c1[nH]ccc2c1Nc1ccc(Cl)cc1C2(CO)C(F)(F)F (centres unmarked) [Example 23, 7-Chloro-5-hydroxymethyl-5-trifluoromethyl-5,10-dihydrobenzo[b]-1,7-naphthyridin-1(2H)-one] has a melting point of 270 to 275 °C. CCCOCC1(C(F)(F)F)c2cc(Cl)ccc2Nc2c1cc[nH]c2=O (centres unmarked) [Example 27, 7-Chloro-5-(n-propoxymethyl)-5-trifluoromethyl-5,10-dihydrobenzo[b]-1,7-naphthyridin-1(2H)-one] showed a melting point of 162 to 165 °C. CC(C)OCC1(C(F)(F)F)c2cc(Cl)ccc2Nc2c1cc[nH]c2=O (centres unmarked) [Example 28, 7-Chloro-5-(i-propoxymethyl)-5-trifluoromethyl-5,10-dihydrobenzo[b]-1,7-naphthyridin-1(2H)-one] showed a melting point of 185 to 190 °C. For COCCC1(C(F)(F)F)c2cc(Cl)ccc2Nc2c1cc[nH]c2=O (centres unmarked) [Example 29, 7-Chloro-5-(2-methoxyethyl)-5-trifluoromethyl-5,10-dihydrobenzo[b]-1,7-naphthyridin-1(2H)-one], the melting point was 268 to 271 °C. CC(C)NCC1(C(F)(F)F)c2cc(Cl)ccc2Nc2c1cc[nH]c2=O (centres unmarked) [Example 30, 7-Chloro-5-(i-propylaminomethyl)-5-trifluoromethyl-5,10-dihydrobenzo[b]-1,7-naphthyridin-1(2H)-one] showed a melting point of 235 to 240 °C. CC(C)N(C)CC1(C(F)(F)F)c2cc(Cl)ccc2Nc2c1cc[nH]c2=O (centres unmarked) [Example 31, 7-Chloro-5-(N-methyl-N-i-propylaminomethyl)-5-trifluoromethyl-5,10-dihydrobenzo[b]-1,7-naphthyridin-1(2H)-one] showed a melting point of 105 to 110 °C. With O=c1[nH]ccc2c1Nc1ccc(Cl)cc1C2(CNC1CC1)C(F)(F)F (centres unmarked) [Example 32, 7-Chloro-5-(cyclopropylaminomethyl)-5-trifluoromethyl-5,10-dihydrobenzo[b]-1,7-naphthyridin-1(2H)-one] the melting point was 242 to 245 °C. CCCNCC1(C(F)(F)F)c2cc(Cl)ccc2Nc2c1cc[nH]c2=O (centres unmarked) [Example 33, 7-Chloro-5-(n-propylaminomethyl)-5-trifluoromethyl-5,10-dihydrobenzo[b]-1,7-naphthyridin-1(2H)-one] showed a melting point of 243 to 245 °C. With O=c1[nH]ccc2c1Nc1ccc(Cl)cc1C2(CNC1CCC1)C(F)(F)F (centres unmarked) [Example 34, 7-Chloro-5-(cyclobutylaminomethyl)-5-trifluoromethyl-5,10-dihydrobenzo[b]-1,7-naphthyridin-1(2H)-one] the melting point was 250 to 254 °C. With CC(C)CNCC1(C(F)(F)F)c2cc(Cl)ccc2Nc2c1cc[nH]c2=O (centres unmarked) [Example 35, 7-Chloro-5-(i-butylaminomethyl)-5-trifluoromethyl-5,10-dihydrobenzo[b]-1,7-naphthyridin-1(2H)-one] the melting point was 210 to 215 °C. In the case of CC(C)OCC1(C(F)(F)F)c2cc(Cl)ccc2Nc2c1cc[nH]c2=O (centres unmarked) [Example 36, 7-Chloro-5-(i-propoxymethyl)-5-trifluoromethyl-5,10-dihydrobenzo[b]-1,7-naphthyridin-1(2H)-one], the melting point is reported as 195 to 197 °C. CC(C)SCC1(C(F)(F)F)c2cc(Cl)ccc2Nc2c1cc[nH]c2=O (centres unmarked) [Example 44, 7-Chloro-5-(i-propylsulfanylmethyl)-5-trifluoromethyl-5,10-dihydrobenzo[b]-1,7-naphthyridin-1(2H)-one] gave a melting point of 220 to 221 °C. In the case of CC(C)SCC1(C(F)(F)F)c2cc(F)ccc2Nc2c1cc[nH]c2=O (centres unmarked) [Example 45, 7-Fluoro-5-(i-propylsulfanylmethyl)-5-trifluoromethyl-5,10-dihydrobenzo[b]-1,7-naphthyridin-1(2H)-one], the melting point is reported as 215 to 216 °C. For CC(C)(C)SCC1(C(F)(F)F)c2cc(Cl)ccc2Nc2c1cc[nH]c2=O (centres unmarked) [Example 46, 7-Chloro-5-(t-butylsulfanylmethyl)-5-trifluoromethyl-5,10-dihydrobenzo[b]-1,7-naphthyridin-1(2H)-one], the melting point was 247 to 249 °C. Molecule CCCCC1(C)c2cc(Cl)ccc2Nc2c1cc[nH]c2=O (centres unmarked) [Example 61a, 7-Chloro-5-(n-butyl)-5-methyl-5,10-dihydrobenzo[b]-1,7-naphthyridin-1(2H)-one] has a melting point of 177 to 179 °C. CCOCCC1(C(F)(F)F)c2cc(Cl)ccc2Nc2c1cc[nH]c2=O (centres unmarked) [Example 62, 7-Chloro-5-(ethoxyethyl)-5-trifluoromethyl-5,10-dihydrobenzo[b]-1,7-naphthyridin-1(2H)-one] showed a melting point of 240 to 245 °C. CCCCC1(C#N)c2cc(Cl)ccc2Nc2c1cc[nH]c2=O (centres unmarked) [Example 63, 7-Chloro-5-(n-butyl)-5-cyano-5,10-dihydrobenzo[b]-1,7-naphthyridin-1(2H)-one] showed a melting point of 182 to 185 °C. Molecule CCCCC1(CO)c2cc(Cl)ccc2Nc2c1cc[nH]c2=O (centres unmarked) [Example 64, 7-Chloro-5-(n-butyl)-5-(hydroxymethyl)-5,10-dihydrobenzo[b]-1,7-naphthyridin-1(2H)-one] has a melting point of 260 to 265 °C. CCCCC1(C(F)F)c2cc(Cl)ccc2Nc2c1cc[nH]c2=O (centres unmarked) [Example 64a, 7-Chloro-5-(n-butyl)-5-difluoromethyl-5,10-dihydrobenzo[b]-1,7-naphthyridin-1(2H)-one] showed a melting point of 198 to 200 °C. For CC(C)OCC1(C(F)F)c2cc(Cl)ccc2Nc2c1cc[nH]c2=O (centres unmarked) [Example 64b, 7-Chloro-5-(i-propoxymethyl)-5-difluoromethyl-5,10-dihydrobenzo[b]-1,7-naphthyridin-1(2H)-one], the melting point was 138 to 142 °C. Work on CCCCC1(C(C)(F)F)c2cc(Cl)ccc2Nc2c1cc[nH]c2=O (centres unmarked) [Example 65, 7-Chloro-5-(n-butyl)-5-(1,1-difluoroethyl)-5,10-dihydrobenzo[b]-1,7-naphthyridin-1(2H)-one] yielded a melting point of 120 to 122 °C. Molecule CCCCC1(C(C)(F)F)c2cc(F)ccc2Nc2c1cc[nH]c2=O (centres unmarked) [Example 66, 5-(n-Butyl)-5-(1,1-difluoroethyl)-7-Fluoro-5,10-dihydrobenzo[b]-1,7-naphthyridin-1(2H)-one] has a melting point of 267 to 270 °C. In the case of CCCCC1(C(C)(F)F)c2cc(C#N)ccc2Nc2c1cc[nH]c2=O (centres unmarked) [Example 67, 7-Cyano-5-(n-butyl)-5-(1,1-difluoroethyl)-5,10-dihydrobenzo[b]-1,7-naphthyridin-1(2H)-one], the melting point is reported as 132.2 to 134.7 °C. Work on CCOCC1(C(C)(F)F)c2cc(Cl)ccc2Nc2c1cc[nH]c2=O (centres unmarked) [Example 68, 7-Chloro-5-(ethoxymethyl)-5-(1,1-difluoroethyl)-5,10-dihydrobenzo[b]-1,7-naphthyridin-1(2H)-one] yielded a melting point of 265 to 267 °C.
